In data set [1] the test system is keratinocyte cell line (HaCat). Description: Metabolic activity of human keratinocytes (Resazurin Assay). Format: cell-based. On the technique in general: The colour change of resazurin is a common sign of viable cells or microbes.
Data set [2] is described as follows: Cysteine depletion protocol (glutathione in solution depletion). Particulars: FIG. 1A. As to the method: In an embodiment, Cysteine depletion Protocol-Glutathione in solution depletion protocol—“in house development protocol” was applied: • In a test tube, mix 10 μL of the 100 mM test chemical solution with 190 μL of GSH solution (20 μL of GSH 2 mM and 170 μL of PB) and Incubated at RT, protected from light, for 1 h in a tube roller (40 rpm) • […]; [test chemical]f=5 mM; [GSH]f=0.2 mM; • 20 μL of Ellman's reagent 10 mM, a thiol sensitive colorimetric reagent was added. Mix gently by tapping manually in the test tube and incubate for 10 min at RT, in a test tube rotator protected from light; • The absorbance was read in a microplate reader at 405 nm. • Note: For each assay, a fresh Glutathione stock of 50 mM (0.00768 g in 500 μL of PBS) and the second stock of 2 mM in PBS (2 μL of the […] solution+48 μl of PBS) were freshly prepared.
In an embodiment, Control and Test Chemical Preparation was applied: • DNFB is used as the positive control for the assay in every assay run. For the negative control LA is used and for the reference control three types of reference controls are included in each study: • Reference control A is made with the solvent DMSO, with incubation with Ellman's reagent and is used to calculate the maximum fluorescence or absorbance in the presence of CYS containing peptides. […]
Test Chemicals: In an embodiment, test chemicals were pre-weighted into 1.5 mL test tubes and dissolved in 1 mL of DMSO to prepare a 100 mM solution immediately before use. The weight of the test chemical to be added to the vial is determined based on the molecular weight and purity. […]
In an embodiment, for the data analysis, the percent depletion of peptide is determined by using the following formula: […]

The nature of data set [3]: In vitro release testing (IVRT), Franz cells, cellulose membrane. Format: in vitro ADME. Particulars: n=6; for dose depletion: 6 h. The procedure: In an embodiment, release studies of the hydrogels were performed on static vertical Franz cells (PermeGear, Inc., USA), with a diffusion circular area of 0.636 cm^2 and a receptor compartment of 5 mL. For that, infinite dose conditions (1 g) of the formulations were applied in the upper compartment, separated from the receptor by a cellulose membrane (MWCO≈14 000 Da, flat width 33 mm, Sigma-Aldrich), previously hydrated in ultrapurified water for at least 30 min. Before the experiments, the system was equilibrated for a minimum of 30 min. The release medium was composed of phosphate buffer pH 5.5 (guaranteeing the maintenance of sink conditions) and continuously stirred at 600 rpm, at 37° C. A circulating water bath maintained the membrane surface temperature at 32° C. During the release studies, the donor compartment, as well as the receptor sampling arm, were carefully covered to avoid medium evaporation, as well as to conduct the experiments under occlusive conditions. At predetermined time points (0.25, 0.5, 0.75, 1, 2, 3, 4 and 6 h), 300 μl of the medium were withdrawn and immediately replenished with fresh medium. NAC and LYS were quantified by HPLC (High-performance liquid chromatography). Release studies were conducted considering n=6 samples.
In an embodiment, the cumulative amount of NAC and LYS released over time was calculated according to the equation:
[formula] • where Cn is the API (active pharmaceutical ingredient) concentration of the receptor medium at each sampling time, Ci is the API concentration of the ith sample, A the effective diffusion area (0.636 cm^2), and VO (5 mL) and Vi (300 μL) the volumes of the receptor compartment and the collected sample, respectively.
In an embodiment, the release rates were retrieved from the slope of the linear regression obtained by plotting the cumulative amount of API diffused per cm^2 as a function of the square root of time. Additionally, mass balance studies were performed to characterize the extent of dose depletion, according to the equation:
[formula] • where Qf reflects the average cumulative amount released at the end of the assay and Qi the initial amount of API placed on the membrane.
In an embodiment, NAC and LYS were quantified by reversed-phase high-pressure liquid chromatography (RP-HPLC), using a Shimadzu LC-2010HT chromatographic system, equipped with an LC-20AD quaternary pump, a SIL-20AHT autosampler, a CTO-10AS over and an SPD-M2OA photodiode array detector. […] Using an injection volume of 50 μL, NAC and LYS were determined at 200 and 215 nm and eluted at 5.4 and 2.2 min, respectively.

This is an account of results in US20260263401A1, “Topical composition and uses thereof” (UNIVERSIDADE DE COIMBRA, priority 2022, published 2026).

Regarding `CC(=O)N[C@@H](CS)C(=O)O` [NAC, n-acetyl cysteine], the “cytotoxicity (metabolic activity)” value in data set [1] is “do not display cytotoxicity”. In addition, the “reactivity of the strong allergen DNFB towards cysteine (Glutathione depletion)” value in data set [2] was “significantly inhibit”. Further, in data set [3], the dose depletion result is on record as “roughly 17%” and the “Tlag (time-lagged values)” value was “approximately 0 h”.
For `NCCCC[C@H](N)C(=O)O` [LYS, lysine] the same measures were “do not display cytotoxicity”, “significantly inhibit”, “roughly 17%” and “approximately 0 h”.
